How the values were obtained:
[1] = system: TgSOD1 mice; assay: Meso Scale Discovery multi-spot cytokine assay, spinal cord lysates of TgSOD1 mice; type: in vivo; conditions: TgSOD1-Cromolyn vs TgSOD1-Vehicle; cromolyn sodium 6.3 mg/kg i.p. once daily, 5 days per week from P60; p=0.0273
Description: (§1) Cromolyn. sodium was provide by AZ Therapies and dissolved in PBS. 100 mM solution was used for in vivo experiments. Dulbecco's PBS was used to dilute the solution for intraperitoneal injections for a final dose of 6.3 mg/kg.
(§2) 149 male and female age- and litter-matched transgenic TgSOD1^G93A and wild-type WtSOD1^G93A mice were used with the following breakdown: Females (19 WtSOD1-Vehicle, 17 WtSOD1-Cromolyn, 19 TgSOD1-Vehicle, and 17 TgSOD1-Cromolyn) and Males (18 WtSOD1-Vehicle, 21 WtSOD1-Cromolyn, 21 TgSOD1-Vehicle, 17 TgSOD1-Cromolyn). The mice received once daily injections of either vehicle or cromolyn sodium (6.3 mg/kg, […] i.p.) 5 days per week starting at P60 until euthanasia.
B6SJL-Tg (SOD1 G93A)1Gur/J transgenic male mice were obtained from Jackson Laboratory and bred with C57BL/6 female mice to obtain wild-type WtSOD1 and mutant transgenic TgSOD1^G93A-expressing mice. To determine mouse genotype, RNA extraction and complimentary DNA (cDNA) synthesis was performed from tail biopsies acquired at postnatal day 28-40 followed by quantitative real-time PCR (qRT-PCR) using primers for the mutant G93A SOD1 gene (GGGAAGCTGTTGTCCCA AG and […])(SEQ ID NO: 1 and SEQ ID NO: 2, respectively). Both age- and litter-matched WtSOD1 and TgSOD1 male. and female mice were used for all studies as described below. […]

[2] = system: TgSOD1 mice; assay: Meso Scale Discovery multi-spot cytokine assay, plasma of TgSOD1 mice; type: in vivo; conditions: 6.3 mg/kg i.p.
Description: as §1, §2
B6SJL-Tg (SOD1 G93A)1Gur/J transgenic male mice were obtained from Jackson Laboratory and bred with C57BL/6 female mice to obtain wild-type WtSOD1 and mutant transgenic TgSOD1^G93A-expressing mice. To determine mouse genotype, RNA extraction and complimentary DNA (cDNA) synthesis was performed from tail biopsies acquired at postnatal day 28-40 followed by quantitative real-time PCR (qRT-PCR) using primers for the mutant G93A SOD1 gene (GGGAAGCTGTTGTCCCA AG and […])(SEQ ID NO: 1 and SEQ ID NO: 2, respectively). Both age- and litter-matched WtSOD1 and TgSOD1 male. and female mice were used for all studies as described below.
Spinal cord frozen tissue was homogenized in ice-cold RIPA buffer (Thermo Fisher Scientific, #8990) supplemented with protease inhibitor cocktail (Thermo Fisher Scientific, #78430). Samples were centrifuged at 45,000 g for 30 minutes at 4° C. using an Optima TL ultracentrifuge and a TLA 120.2 rotor (Beckman Coulter). Expression levels of the cytokines were assessed in the supernatants derived from spinal cord tissue or in the plasma, using an electrocheiniluminescence-based multi-array method and MESO Quickplex SQ 120 system (MSD, Rockville, Md., USA). The 96-well V-FLEX Proinflammatory Mouse 1 Kit (Meso Scale Discovery, #K15048D) was used to measure simultaneously IL-1β, IL-2, IL-5, IL-6, IL-10, and TNFα, following the manufacturer's instructions. Briefly, samples were diluted in the calibrator and added to the plate coated with an array of cytokine capture antibodies. Samples were incubated. in the plate for 2 hours with shaking at room temperature, followed by washes with the wash buffer provided in the kit. The detection antibody solution was added to each well and the plate was incubated for 2 hours. The plate was washed with the wash buffer and the 2× Read Buffer T was added. The signal was immediately measured on a MESO QuickIlex SQ 120 instrument and was analyzed using the DISCOVERY WORKBENCH 4.0 software (Meso Scale Diagnostics, LLC., Rockville, Md., USA). Protein concentrations in the supernatants or the plasma samples were measured using the Pierce BCA protein assay kit (Thermo Scientific). Values in the graphs represent levels of cytokines normalized to the corresponding protein concentrations.
Data are presented as median values. Box plots are used for graphical representation of population data with the central line representing the median, the edges representing the interquartile ranges, and the whiskers representing 10-90th percentiles. Data are also represented as medians±interquartile ranges or percent values. Sample sizes are included in the figure legends. Comparisons for unrelated samples were performed using a two-way ANOVA followed by Tukey's or Sidak's multiple comparison's test or a one-way ANOVA test followed by Tukey's multiple comparison post-tests at a significance level (a) of 0.05. For p<0.05 and >0.00001, exact P values (two-tailed) are reported.
Additionally, levels of L-1β, IL-2, IL-5, IL-6, IL-10, and TNFα were assessed in the plasma of a subset of mice (Females: 13 WtSOD1-Vehicle, 15 WtSOD1-Cromolyn, 6 TgSOD1-Vehicle, and 6 TgSOD1-Cromolyn; and Males: 14 WtSOD1-Vehicle, 10 WtSOD1-Cromolyn, 6 TgSOD1-Vehicle, 3 TgSOD1-Cromolyn).

[3] = system: BV2 microglial cells; assay: Aβ42 uptake by ELISA and confocal microscopy in naive BV2 microglial cells; type: cell-based
Description: (§3) Naive BV2 microglial cells were treated with DMSO (control) or cromolyn (500 μM) for 16 hours. Afterwards, the cells were incubated with fluoresceraly-labeled A1342 (red) and DMSO or cromolyn for 2 hours. After incubation, the cells were labeled with a plasma membrane dye (PM, green) and imaged. BV2 microglial cells or BV2 cells stably expressing CD33 (BV2-CD33wT) were treated with DMSO or different concentrations of cromolyn for 16 hours. Then, cells were incubated with soluble untagged Aβ42 and DMSO or cromolyn for 2 hours and collected for ELBA analysis.

[4] = system: BV2-CD33wT cells; assay: Aβ42 uptake by ELISA in BV2 cells stably expressing CD33; type: cell-based
Description: as §3

[5] = 16 hours pretreatment, then 2 hours with Aβ42, vs vehicle (DMSO), ELISA
[6] = different concentrations of cromolyn

Structure (SMILES): O=C(O)c1cc(=O)c2c(OCC(O)COc3cccc4oc(C(=O)O)cc(=O)c34)cccc2o1 [cromolyn, cromolyn sodium]
- TNFα level in spinal cord [1]: significant decrease
- IL-10 level in plasma ([2]; TgSOD1-Cromolyn vs TgSOD1-Vehicle, p=0.0095): significantly decreased
- IL-2 level in plasma ([2]; TgSOD1-Cromolyn vs TgSOD1-Vehicle, p=0.0211): significantly decreased
- IL-6 level in plasma ([2]; TgSOD1-Cromolyn vs TgSOD1-Vehicle, p=0.0273): significantly decreased
- TNFα level in plasma ([2]; TgSOD1-Cromolyn vs TgSOD1-Vehicle, p=0.110): trend towards a decrease
- IL-1β level in plasma ([2]; between groups): no statistically significant difference
- IL-5 level in plasma ([2]; between groups): no statistically significant difference
- Aβ42 uptake in naive BV2 microglial cells [3, 5]: increased Aβ42 uptake
- dose dependence of Aβ42 uptake modulation, naive BV2 cells [3, 6]: dose-dependent effect
- internalized Aβ42 in BV2-CD33wT cells [4, 5]: increased levels of internalized Aβ42
- dose dependence of Aβ42 uptake modulation, BV2-CD33wT cells [4, 6]: dose-dependent effect

Reference: patent publication US20220218652A1, “METHODS OF TREATING CYTOKINE RELEASE SYNDROME” (The General Hospital Corporation, priority 2018, published 2022)
